Values quoted from earlier work, collected in PMC7400446, “Antimicrobial and Antifungal Activity of Rare Substituted 1,2,3-Thiaselenazoles and Corresponding Matched Pair 1,2,3-Dithiazoles” (Antibiotics, 2020).
pIC50: −log10 of the molar value. Values after ≈ are worked out from the molar mass of the structure shown.

Columns and labels:
Settings in all cases: cited from earlier work
ASCT2 Transport = system: ASCT2 Transport; set-up: method as in PMID 19036587, PMID 23010140, PMID 28709952
C. neoformans = system: C. neoformans; set-up: method as in earlier work
S. aureus = system: S. aureus; set-up: method as in PMID 19036587, doi:10.1016/0960-894X(96)00062-5, doi:10.1016/0960-894X(96)00423-4, doi:10.1016/S0223-5234(98)80040-8
E. faecalis = system: E. faecalis; set-up: method as in PMID 19036587, doi:10.1016/0960-894X(96)00062-5, doi:10.1016/0960-894X(96)00423-4, doi:10.1016/S0223-5234(98)80040-8
L. monocytogenes = system: L. monocytogenes; set-up: method as in PMID 19036587, doi:10.1016/0960-894X(96)00062-5, doi:10.1016/0960-894X(96)00423-4, doi:10.1016/S0223-5234(98)80040-8
L1210 = system: L1210; set-up: method as in PMID 19036587, PMID 23010140, PMID 28709952
K562 = system: K562; set-up: method as in PMID 19036587, PMID 23010140, PMID 28709952

Row | SMILES | MIC C. neoformans (C. neoformans) | MIC E. faecalis (E. faecalis) | MIC L. monocytogenes (L. monocytogenes) | other results
1 | FC(F)(F)Oc1ccc(/N=c2/ssnc2Cl)cc1Cl [Compound 3] | – | – | – | pIC50 (ASCT2 Transport): 5.09
2 | COc1ccc(/N=c2/ssnc2Cl)cc1 [Compound 7] | 8 µg/mL (≈ 30.9 µM) | – | – | –
3 | Clc1nss/c1=N/c1ccccc1 [Compound 4] | – | 16 µg/mL (≈ 70 µM) | 16 µg/mL (≈ 70 µM) | MIC S. aureus (S. aureus): 16 µg/mL (≈ 70 µM)
4 | COc1ccccc1/N=c1/ssnc1Cl [Compound 5] | – | 16 µg/mL (≈ 61.8 µM) | 16 µg/mL (≈ 61.8 µM) | –
5 | N#Cc1cnn(CCc2ccccc2)c1/N=c1/ssnc1Cl [Compound 1] | – | – | – | pIC50 (L1210): 5.30; pIC50 (K562): 5.52
6 | N#Cc1ccccc1/N=c1/ssnc1Cl [Compound 6] | 8 µg/mL (≈ 31.5 µM) | – | – | –
